Measurements from article PMC13343842, “The accessory protein CvnF8 modulates histidine kinase activity in an actinobacterial G protein system in Streptomyces coelicolor” (mBio, 2026).

Molecular target: T1, CvnA8 (Streptomyces coelicolor, UniProt Q9KYJ8, H183A)
T1 construct: truncated, two N-terminal transmembrane helices removed; printed as 'nucleotides 55–518' (probably residues 55-518); N-terminal 3x Strep tag kept; E. coli BL21(DE3); Strep-Tactin XT and SEC
Assay: Kinase-Glo Plus luminescence ATP consumption, Michaelis-Menten fit
Type: biochemical
Conditions: 1.5 µM CvnA8 H183A, 25 mM Tris pH 8.0, 150 mM NaCl, 100 mM MgCl2, 37 °C; 0-300 µM ATP

T1 sequence (Q9KYJ8 entry or part of it H183A): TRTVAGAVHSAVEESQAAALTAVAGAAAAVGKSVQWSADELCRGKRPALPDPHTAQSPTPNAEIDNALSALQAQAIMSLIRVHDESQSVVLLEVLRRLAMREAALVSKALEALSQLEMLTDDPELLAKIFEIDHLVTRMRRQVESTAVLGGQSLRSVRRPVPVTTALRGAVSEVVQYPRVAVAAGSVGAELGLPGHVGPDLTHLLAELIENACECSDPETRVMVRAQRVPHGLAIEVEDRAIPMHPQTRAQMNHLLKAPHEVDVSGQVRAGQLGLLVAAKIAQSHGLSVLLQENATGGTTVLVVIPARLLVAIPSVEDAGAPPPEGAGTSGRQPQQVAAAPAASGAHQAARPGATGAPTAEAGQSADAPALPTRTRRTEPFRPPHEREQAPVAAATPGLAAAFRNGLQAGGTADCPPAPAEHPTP

Nc1ncnc2c1ncn2[C@@H]1O[C@H](COP(=O)(O)OP(=O)(O)OP(=O)(O)O)[C@@H](O)[C@H]1O [ATP]
Kinase-Glo Plus luminescence ATP consumption, Michaelis-Menten fit: drastically reduced in the H183A mutant, which prohibited the calculation of a nominal kcat
